Measurements published in patent publication US9340577B2, “HLA binding motifs and peptides and their uses” (priority 1992, dated 2016).
pIC50: −log10 of the molar value. No end group written: not given here.

Assays:
Test in all cases: biochemical
DR1 (DRB1*0101) = DR1 (DRB1*0101) (Homo sapiens, UniProt P01903+P01911, A100R/D57E/F55L/F60I/F76Y/I96L/L162R/M171V/P40L/Q125E/R42F/V115G/Y59C); assay type: binding
DR4w4 (DRB1*0401) = DR4w4 (DRB1*0401) (Homo sapiens, UniProt P01903+P01911, A100K/A169T/F76Y/I96L/K127E/L162R/M171V/N62H/P40V/Q125Y/R42H/S133A/S149N/S66Y/V115G/V209L/W38E); assay type: binding
DR7 (DRB1*0701) = DR7 (DRB1*0701) (Homo sapiens, UniProt P01903+P01911, A100R/A102G/A103Q/D57E/D86V/E43K/F76Y/K127E/L162R/M171V/P40G/Q125H/Q99D/R33Q/R42Y/R54Q/S133A/S66F/T210M/V115G/Y107V/Y59L/Y89S); assay type: binding
DRB1*0301 = DRB1*0301 (Homo sapiens, UniProt P01903+P01911, A100K/A102G/A103R/A169T/F55Y/I96L/K41T/L162R/M171V/P40S/Q125H/Q178H/Q39Y/R42S/S66N/T106N/T262R/W38E/Y61H); assay type: binding
DRB1*0405 = DRB1*0405 (Homo sapiens, UniProt P01903+P01911, A100R/A169T/D86S/F76Y/I96L/K127E/L162R/M171V/N62H/P40V/Q125Y/R42H/S133A/S149N/S66Y/V115G/V209L/W38E); assay type: binding
DRB1*0802 = DRB1*0802 (Homo sapiens, UniProt P01903+P01911, A100R/A103L/A169T/F76Y/H45Y/I96F/K41T/L162R/M171V/P40S/Q125H/Q178H/Q39Y/Q99D/R218S/R42G/S66Y/V115G/W38E); assay type: binding
DRB1*0901 = DRB1*0901 (Homo sapiens, UniProt P01903+P01911, A100R/A103E/D57H/D86V/F55Y/F60I/F76Y/I96F/K127E/L162R/M171V/P40D/Q125H/Q99R/R33Q/R42F/S133A/S66N/T210M/V115G/W38K/Y107V/Y59G/Y89S); assay type: binding
DRB1*1201 = DRB1*1201 (Homo sapiens, UniProt P01903+P01911, A100R/A169T/D57E/D86V/F55L/H45Y/K41T/L162R/M171V/P40S/Q125H/Q178H/Q39Y/Q99D/R42G/S66L/T262R/V114A/V67L/W38E/Y59H/Y61H/Y89S); assay type: binding
DRB1*1302 = DRB1*1302 (Homo sapiens, UniProt P01903+P01911, A100E/A169T/K41T/L162R/M171V/P40S/Q125H/Q178H/Q39Y/Q99D/R42S/S66N/T262R/V115G/W38E/Y61H); assay type: binding
DRB1*1501 = DRB1*1501 (Homo sapiens, UniProt P01903+P01911); assay type: binding
DRB4*0101 = DRB4*0101 (Homo sapiens, UniProt P01903+P13762, G164S); assay type: binding
DRB5*0101 = DRB5*0101 (Homo sapiens, UniProt P01903+Q30154); conditions: Binding affinity DRB5 *0101
DRB1*1101 = DRB1*1101 (Homo sapiens, UniProt P01903+P01911, A100R/A169T/A87E/I96F/K41T/L162R/M171V/P40S/Q125H/Q178H/Q39Y/Q99D/R42S/S66Y/T262R/V115G/W38E); conditions: Binding affinity DRB1 *1101
Chain of DRB1*1101 (P01903 26-254 limits assumed, other chains not shown): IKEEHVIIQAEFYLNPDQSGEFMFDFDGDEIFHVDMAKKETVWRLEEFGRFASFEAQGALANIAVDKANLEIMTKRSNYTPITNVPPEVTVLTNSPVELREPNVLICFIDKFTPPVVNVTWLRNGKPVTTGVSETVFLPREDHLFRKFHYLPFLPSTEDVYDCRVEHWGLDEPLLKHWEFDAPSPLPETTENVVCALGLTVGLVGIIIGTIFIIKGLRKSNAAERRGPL

Chain of DRB1*1302 (P01903 26-254 limits assumed, other chains not shown): as above
Chain of DRB1*0301 (P01903 26-254 limits assumed, other chains not shown): as above

Compound: CC[C@H](C)[C@H](NC(=O)[C@H](Cc1c[nH]c2ccccc12)NC(=O)[C@H](CCC(=O)O)NC(=O)[C@@H]1CCCN1)C(=O)N[C@@H](CCC(N)=O)C(=O)N[C@@H](CCCNC(=N)N)C(=O)N[C@@H](CCC(N)=O)C(=O)N[C@H](C(=O)N[C@H](C(=O)N[C@@H](CC(C)C)C(=O)N[C@@H](CCC(N)=O)C(=O)N[C@@H](Cc1c[nH]cn1)C(=O)N[C@@H](CO)C(=O)N[C@@H](Cc1ccccc1)C(=O)N[C@@H](CC(N)=O)C(=O)O)C(C)C)[C@@H](C)O [Peptide 89.0011]
- pIC50 (DR1 (DRB1*0101)): 5.65
- pIC50 (DR4w4 (DRB1*0401)): 7.74
- pIC50 (DR7 (DRB1*0701)): 5.21
- pIC50 (DRB1*0301): 6.81
- pIC50 (DRB1*0405): 6.59
- pIC50 (DRB1*0802): 6.67
- pIC50 (DRB1*0901): 5.21
- pIC50 (DRB1*1201): 5.40
- pIC50 (DRB1*1302): 6.33
- pIC50 (DRB1*1501): 5.05
- pIC50 (DRB4*0101): 8.35
- pIC50 (DRB5*0101): 4.93

Compound: CC[C@H](C)[C@H](N)C(=O)N[C@@H](CCC(=O)O)C(=O)N[C@@H](Cc1ccccc1)C(=O)N[C@H](C(=O)N[C@H](C(=O)N[C@@H](Cc1ccccc1)C(=O)N[C@@H](CC(C)C)C(=O)NCC(=O)N[C@@H](C)C(=O)N[C@@H](CC(C)C)C(=O)N[C@@H](CCCCN)C(=O)N[C@@H](CO)C(=O)N[C@@H](Cc1ccccc1)C(=O)N[C@@H](CC(C)C)C(=O)N[C@@H](CCCCN)C(=O)O)[C@@H](C)O)[C@@H](C)CC [Peptide 89.0033]
- pIC50 (DR1 (DRB1*0101)): 8.07
- pIC50 (DR4w4 (DRB1*0401)): 7.13
- pIC50 (DR7 (DRB1*0701)): 6.39
- pIC50 (DRB1*0301): 5.64
- pIC50 (DRB1*0405): 5.78
- pIC50 (DRB1*1201): 6.39
- pIC50 (DRB1*1302): < 4.70
- pIC50 (DRB1*1501): 7.11
- pIC50 (DRB4*0101): 7.36
- pIC50 (DRB5*0101): 7.47

Compound: CMLIQPPKLRSTAAA [Peptide 89.0047]
- pIC50 (DR4w4 (DRB1*0401)): 5.62
- pIC50 (DR7 (DRB1*0701)): 6.33
- pIC50 (DRB1*0301): 5.24
- pIC50 (DRB1*0405): < 4.70
- pIC50 (DRB1*0802): 5.58
- pIC50 (DRB1*0901): 5.12
- pIC50 (DRB1*1201): 5.43
- pIC50 (DRB1*1302): 5.44
- pIC50 (DRB1*1501): 5.58
- pIC50 (DRB4*0101): 6.25
- pIC50 (DRB1*1101): 6.01
- pIC50 (DRB5*0101): 6.04

Compound: CQAIELQLALEALNK [Peptide 90.0014]
- pIC50 (DR1 (DRB1*0101)): 7.60
- pIC50 (DR4w4 (DRB1*0401)): 6.35
- pIC50 (DR7 (DRB1*0701)): < 4.70
- pIC50 (DRB1*0301): 6.33
- pIC50 (DRB1*0405): 5.82
- pIC50 (DRB1*0802): 5.44
- pIC50 (DRB1*0901): 5.75
- pIC50 (DRB1*1201): 5.96
- pIC50 (DRB1*1302): 6.67
- pIC50 (DRB1*1501): 6.70
- pIC50 (DRB4*0101): 7.85
- pIC50 (DRB1*1101): 5.49
- pIC50 (DRB5*0101): 5.72

Compound: DHDITDDSDIAYKYA [Peptide 90.0117]
- pIC50 (DR1 (DRB1*0101)): < 4.70
- pIC50 (DR4w4 (DRB1*0401)): 6.29
- pIC50 (DR7 (DRB1*0701)): < 4.70
- pIC50 (DRB1*0301): 7.00
- pIC50 (DRB1*0405): 5.66
- pIC50 (DRB1*0802): < 4.70
- pIC50 (DRB1*1201): < 4.70
- pIC50 (DRB1*1302): 6.27
- pIC50 (DRB1*1501): < 4.70
- pIC50 (DRB4*0101): 6.24
- pIC50 (DRB1*1101): < 4.70
- pIC50 (DRB5*0101): 5.17

Compound: DWCVAAFGVTGTVAE [Peptide 89.0042]
- pIC50 (DR1 (DRB1*0101)): 7.96
- pIC50 (DR4w4 (DRB1*0401)): 6.53
- pIC50 (DR7 (DRB1*0701)): 6.46
- pIC50 (DRB1*0301): < 4.70
- pIC50 (DRB1*0405): 6.74
- pIC50 (DRB1*0802): 5.46
- pIC50 (DRB1*0901): 6.05
- pIC50 (DRB1*1201): < 4.70
- pIC50 (DRB1*1302): < 4.70
- pIC50 (DRB1*1501): 7.19
- pIC50 (DRB4*0101): 6.22
- pIC50 (DRB1*1101): 5.49
- pIC50 (DRB5*0101): 5.06

Compound: DWVMAIFGVNPTVAE [Peptide 89.0079]
- pIC50 (DR1 (DRB1*0101)): 7.24
- pIC50 (DR4w4 (DRB1*0401)): 7.35
- pIC50 (DR7 (DRB1*0701)): 6.97
- pIC50 (DRB1*0301): 6.37
- pIC50 (DRB1*0405): 7.07
- pIC50 (DRB1*0802): 5.17
- pIC50 (DRB1*0901): 5.79
- pIC50 (DRB1*1201): 6.37
- pIC50 (DRB1*1302): 7.22
- pIC50 (DRB1*1501): 7.59
- pIC50 (DRB4*0101): 8.19
- pIC50 (DRB1*1101): 5.74

Compound: IHFLQGAIISFVNSN [Peptide 89.0089]
- pIC50 (DR1 (DRB1*0101)): 8.38
- pIC50 (DR4w4 (DRB1*0401)): 6.30
- pIC50 (DR7 (DRB1*0701)): 5.99
- pIC50 (DRB1*0301): < 4.70
- pIC50 (DRB1*0405): 5.58
- pIC50 (DRB1*0802): 5.72
- pIC50 (DRB1*1201): 7.15
- pIC50 (DRB1*1302): 6.35
- pIC50 (DRB1*1501): 7.27
- pIC50 (DRB4*0101): 6.57
- pIC50 (DRB5*0101): < 4.70

Compound: IVHLKGDPNSLKCLR [Peptide 90.0255]
- pIC50 (DR1 (DRB1*0101)): 6.64
- pIC50 (DR4w4 (DRB1*0401)): 7.08
- pIC50 (DR7 (DRB1*0701)): < 4.70
- pIC50 (DRB1*0301): 7.38
- pIC50 (DRB1*0405): < 4.70
- pIC50 (DRB1*0802): 5.66
- pIC50 (DRB1*0901): < 4.70
- pIC50 (DRB1*1201): 5.33
- pIC50 (DRB1*1302): 6.24
- pIC50 (DRB1*1501): 5.11
- pIC50 (DRB4*0101): 5.80
- pIC50 (DRB5*0101): 5.59
